Legend:
[1] = target: T1, human EHMT2 913-1193 (Homo sapiens, UniProt Q96KQ7); test: EHMT2 enzyme assay on histone peptide substrate (EHMT2 PEP); format: biochemical; details: recombinant human EHMT2 913-1193, histone H3 1-15 peptide, balanced conditions; read-out: EHMT2 PEP (IC50 μM)
T1 construct: recombinant purified human EHMT2 913-1193, Viva; purchased Viva
T1 sequence (Q96KQ7 913-1193): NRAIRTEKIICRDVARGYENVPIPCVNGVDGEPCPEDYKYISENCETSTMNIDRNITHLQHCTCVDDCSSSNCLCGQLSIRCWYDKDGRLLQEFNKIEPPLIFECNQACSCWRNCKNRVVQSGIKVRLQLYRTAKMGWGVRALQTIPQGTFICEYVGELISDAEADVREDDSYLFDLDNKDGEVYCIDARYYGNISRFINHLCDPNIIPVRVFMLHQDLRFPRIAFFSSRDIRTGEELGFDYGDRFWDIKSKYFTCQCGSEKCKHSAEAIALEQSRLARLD
Procedure, shortened: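 Radiometric methyltransferase assay: 0.031 nM EHMT2 913-1193 preincubated 30 min with compound (10-point 3-fold series, top final 50 μM, 2% DMSO) in 20 mM Bicine pH 7.5, 1 mM TCEP. Biotinylated histone peptide methylated with ^3H-SAM for 60 min at room temperature, quenched with unlabeled SAM, captured on streptavidin Flashplates and counted.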

[2] = target: T2, EHMT1 (Homo sapiens, UniProt Q9H9B1); test: EHMT1 enzyme assay on peptide substrate (EHMT1 PEP); format: biochemical; details: read-out: EHMT1 PEP (IC50 μM)
T2 sequence (Q9H9B1 1-1298): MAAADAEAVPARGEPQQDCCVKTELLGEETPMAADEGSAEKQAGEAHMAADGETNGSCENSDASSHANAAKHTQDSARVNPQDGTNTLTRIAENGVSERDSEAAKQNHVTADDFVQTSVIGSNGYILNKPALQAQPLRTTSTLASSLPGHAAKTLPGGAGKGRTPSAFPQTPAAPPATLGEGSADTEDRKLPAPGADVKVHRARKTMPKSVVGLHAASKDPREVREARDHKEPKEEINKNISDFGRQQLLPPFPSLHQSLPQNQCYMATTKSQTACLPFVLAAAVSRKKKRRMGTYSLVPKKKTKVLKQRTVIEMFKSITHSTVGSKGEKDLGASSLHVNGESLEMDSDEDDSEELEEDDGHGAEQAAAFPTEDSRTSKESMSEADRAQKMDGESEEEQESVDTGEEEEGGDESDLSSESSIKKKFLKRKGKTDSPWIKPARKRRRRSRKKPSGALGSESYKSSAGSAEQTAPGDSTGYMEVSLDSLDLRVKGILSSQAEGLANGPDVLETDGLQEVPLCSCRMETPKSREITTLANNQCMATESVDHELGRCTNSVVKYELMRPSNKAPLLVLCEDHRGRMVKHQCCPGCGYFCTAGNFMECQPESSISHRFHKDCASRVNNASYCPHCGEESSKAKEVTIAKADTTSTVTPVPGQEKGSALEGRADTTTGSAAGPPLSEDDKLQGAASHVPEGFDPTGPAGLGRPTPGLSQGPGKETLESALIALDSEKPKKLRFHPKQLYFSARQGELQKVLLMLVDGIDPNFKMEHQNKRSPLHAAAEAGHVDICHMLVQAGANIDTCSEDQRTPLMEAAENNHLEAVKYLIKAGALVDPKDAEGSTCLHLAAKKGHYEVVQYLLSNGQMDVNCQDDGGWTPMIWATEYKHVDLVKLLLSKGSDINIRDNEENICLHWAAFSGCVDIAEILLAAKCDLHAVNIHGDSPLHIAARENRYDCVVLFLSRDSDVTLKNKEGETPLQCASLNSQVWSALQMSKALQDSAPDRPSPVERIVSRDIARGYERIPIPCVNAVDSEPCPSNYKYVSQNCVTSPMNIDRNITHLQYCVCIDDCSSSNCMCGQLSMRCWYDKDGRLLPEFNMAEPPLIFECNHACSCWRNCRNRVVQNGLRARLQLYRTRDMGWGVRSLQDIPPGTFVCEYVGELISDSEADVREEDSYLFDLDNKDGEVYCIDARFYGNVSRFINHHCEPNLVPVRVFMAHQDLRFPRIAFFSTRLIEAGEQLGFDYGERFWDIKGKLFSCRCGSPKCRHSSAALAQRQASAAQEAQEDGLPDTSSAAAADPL

| SMILES | IC50 [1] [µM] | IC50 [2] [µM] |
| --- | --- | --- |
| CNc1ccnc(NC2CCCNC2)n1 (stereo not shown) [Compound 541, N^4-methyl-N^2-(piperidin-3-yl)pyrimidine-2,4-diamine] | > 10 | > 10 |
| CNc1ccnc(NC2CCNCC2)n1 [Compound 542, N^4-methyl-N^2-(piperidin-4-yl)pyrimidine-2,4-diamine] | > 10 | > 10 |
| CCCC1(Nc2nccc(NC)n2)CCCNC1 (stereo not shown) [Compound 544] | > 10 | > 10 |
| CCCC1(Nc2nccc(NC)n2)CCNCC1 [Compound 545] | > 10 | > 10 |
| CNc1ccnc(NC2(C)CCCNC2)n1 (stereo not shown) [Compound 546, N^4-methyl-N^2-(3-methylpiperidin-3-yl)pyrimidine-2,4-diamine] | > 10 | > 10 |
| CNc1ccnc(NC2(C)CCNCC2)n1 [Compound 547, N^4-methyl-N^2-(4-methylpiperidin-4-yl)pyrimidine-2,4-diamine] | > 10 | > 10 |
| CNc1ccnc(N[C@@H]2CC[C@H](N)C2)n1 [Compound 548, N^2-((1R,3S)-3-aminocyclopentyl)-N^4-methylpyrimidine-2,4-diamine] | > 10 | > 10 |
| CN1CCC(COc2cnc(NCC3CCOCC3)nc2)C1 (stereo not shown) [Compound 553] | > 10 | > 10 |
| CN1CCC(COc2ccc(NC3CCNCC3)nc2)C1 (stereo not shown) [Compound 554] | > 10 | > 10 |
| CN1CCC(COc2cnc(NC3CCNCC3)nc2)C1 (stereo not shown) [Compound 555] | > 10 | > 10 |
| c1nc(NC2CCNCC2)ncc1OCC1CCN(C2CC2)C1 (stereo not shown) [Compound 556] | > 10 | > 10 |
| c1nc(NC2CCOCC2)ncc1OCC1CCN(C2CC2)C1 (stereo not shown) [Compound 557] | > 10 | > 10 |
| CNc1cc(C)nc(Nc2cnc(OC)c(OC[C@H]3CCN(C4CC4)C3)c2)n1 [Compound 558] | 0.1 to 1 | < 0.1 |
| CNc1cc(C)nc(Nc2ccc(OC)c(OCC3CN(C(C)C)C3)c2)n1 [Compound 559] | 0.1 to 1 | < 0.1 |
| CCN1CC(C(O)Oc2cc(Nc3nc(C)cc(NC)n3)ccc2OC)C1 (stereo not shown) [Compound 560] | 0.1 to 1 | 0.1 to 1 |
| CNc1cc(C)nc(Nc2ccc(OC)c(O)c2)n1 [Compound 561] | > 10 | > 10 |
| CCN1CC(C(C#N)Oc2cc(Nc3nc(C)cc(NC)n3)ccc2OC)C1 (stereo not shown) [Compound 562] | 1 to 10 | 1 to 10 |
| CCN1CC(COc2cc(Nc3cc(NC)cc(C)n3)cnc2OC)C1 [Compound 569] | 0.1 to 1 | < 0.1 |
| CNc1cc(C)nc(Nc2ccc(OC)c(OCC3CN(C(C)C)C3)c2)n1 [Compound 575] | 1 to 10 | 0.1 to 1 |
| CNc1cc(C)nc(Nc2ccc(OC)c(OCC3CN(C4CCOC4)C3)c2)n1 (stereo not shown) [Compound 580] | > 10 | > 10 |
| CC(C)N1CC(COc2cnc(NC3CCNCC3)nc2)C1 [Compound 588] | > 10 | > 10 |

Now from value to compound:

| IC50 [1] [µM] | IC50 [2] [µM] | SMILES |
| --- | --- | --- |
| 0.1 to 1 | 0.1 to 1 | CNc1ccnc(Nc2cc(OCCCN3CCCC3)c3cn[nH]c3c2)n1 [Compound 538, N^4-methyl-N^2-(4-(3-(pyrrolidin-1-yl)propoxy)-1H-indazol-6-yl)pyrimidine-2,4-diamine] |
| 1 to 10 | > 10 | CNc1ccnc(Nc2cc(OCCCN3CCCC3)c3[nH]ncc3c2)n1 [Compound 539] |
| > 10 | > 10 | CCCCN1CCCC(C)(Nc2nccc(NC)n2)C1 (stereo not shown) [Compound 549, N^2-(1-butyl-3-methylpiperidin-3-yl)-N^4-methylpyrimidine-2,4-diamine] |
| > 10 | > 10 | CCCCN1CCC(C)(Nc2nccc(NC)n2)CC1 [Compound 550, N^2-(1-butyl-4-methylpiperidin-4-yl)-N^4-methylpyrimidine-2,4-diamine] |
| 0.1 to 1 | 0.1 to 1 | CNc1cc(C)nc(Nc2ccc(OC)c(OCCCN(C)C3CCC3)c2)n1 [Compound 551, N^2-(3-(3-(cyclobutyl(methyl)amino)propoxy)-4-methoxyphenyl)-N^4,6-dimethylpyrimidine-2,4-diamine] |
| > 10 | > 10 | c1nc(NC2CCNCC2)ncc1OCCCN1CCCC1 [Compound 552] |
| < 0.1 | < 0.1 | CNc1cc(C)nc(Nc2ccc(OC)c(OC[C@@H]3CCN(C4CCC4)C3)c2)n1 [Compound 563] |
| < 0.1 | < 0.1 | CCN1CC(COc2cc(Nc3nccc4[nH]ccc34)ncc2OC)C1 [Compound 564] |
| 1 to 10 | 1 to 10 | COc1cc(Nc2nc(C)cc3[nH]ncc23)ncc1OCCCN1CCCC1 [Compound 565] |
| 1 to 10 | 1 to 10 | CCN1CC(COc2cc(Nc3cc(NC)ncc3F)ncc2OC)C1 [Compound 566] |
| 1 to 10 | 1 to 10 | CCN1CC(COc2cc(Nc3cc(NC)nc(C)c3F)ncc2OC)C1 [Compound 567] |
| 0.1 to 1 | < 0.1 | CNc1cc(C)nc(Nc2ccc(OC)c(OC[C@@H]3CCN(C4(C)CC4)C3)c2)n1 [Compound 568] |
| < 0.1 | < 0.1 | CCN1CC[C@@H](COc2cc(Nc3nc(C)cc(NC)n3)ccc2OC)C1 [Compound 571] |
| > 10 | > 10 | COc1ccc(NC2CCNCC2)cc1OCCCN1CCCC1 [Compound 572] |
| 1 to 10 | 1 to 10 | COc1ccc(NC2CCCNC2)cc1OCCCN1CCCC1 (stereo not shown) [Compound 573] |
| 1 to 10 | 1 to 10 | CNc1cc(C)nc(Nc2ccc(OC)c(OCCCN3CC4(CC4)C3)c2)n1 [Compound 574] |
| 0.1 to 1 | < 0.1 | CNc1cc(C)nc(Nc2ccc(OC)c(OCC3CN(C4CCC4)C3)c2)n1 [Compound 576] |
| 1 to 10 | 0.1 to 1 | CNc1cc(C)nc(Nc2ccc(OC)c(OCC3CN(C4CCCC4)C3)c2)n1 [Compound 577] |
| 1 to 10 | 1 to 10 | COc1cc(NC2CCCNC2)ccc1OCCCN1CCCC1 (stereo not shown) [Compound 578] |
| 1 to 10 | 1 to 10 | COc1cc(NC2CCNCC2)ccc1OCCCN1CCCC1 [Compound 579] |
| 1 to 10 | > 10 | COc1cnc(Nc2cccc3[nH]ncc23)cc1OCCCN1CCCC1 [Compound 581] |
| > 10 | > 10 | COc1ccc(Nc2nccc3[nH]ncc23)cc1OCCCN1CCCC1 [Compound 582] |
| 1 to 10 | 1 to 10 | COc1cnc(Nc2ccnc3[nH]ncc23)cc1OCCCN1CCCC1 [Compound 583] |
| > 10 | > 10 | CCN1CC(COc2cc(Nc3cccc4nncn34)ncc2OC)C1 [Compound 584] |
| 1 to 10 | 1 to 10 | COc1cnc(Nc2cccc3nccn23)cc1OCCCN1CCCC1 [Compound 585] |
| 1 to 10 | 1 to 10 | COc1cnc(Nc2cccn3ccnc23)cc1OCCCN1CCCC1 [Compound 586] |
| < 0.1 | < 0.1 | COc1cc2c(C3CCN(C)CC3)nc(N(C)C)nc2cc1OCCCN1CCCC1 [Compound 587] |
| > 10 | > 10 | COc1cnc(Nc2cccc3cncn23)cc1OCCCN1CCCC1 [Compound 589] |
| < 0.1 | < 0.1 | COc1ccc(Nc2nc(C)cc(NCC3CCOCC3)n2)cc1OCCCN1CCCC1 [Compound 590] |

From US20210198277A1, “AMINE-SUBSTITUTED ARYL OR HETEROARYL COMPOUNDS” (Epizyme, Inc., priority 2016, published 2021)
